Calls of active or inactive are those of the source. The rule behind the calls is not given here.
Columns and labels:
Mus musculus [1] = test: The percent increase in life span on P388 cells which were inoculated intraperitoneally in CD2F1 mice at 240 mg/kg dose placed at ranking order 2; type: functional; details: P388, ip, route intraperitoneal
Mus musculus [2] = test: The percent increase in life span on P388 cells which were inoculated intraperitoneally in CD2F1 mice at 480 mg/kg dose placed at ranking order 1; type: functional; details: P388, ip, route intraperitoneal
Mus musculus [3] = test: Percent increase in life span (ILS) was measured on P388 cells which were inoculated intraperitoneally in CD2F1 mice; type: functional
Mus musculus [4] = test: The percent increase in life span on P388 cells which were inoculated intraperitoneally in CD2F1 mice at 200 mg/kg dose placed at ranking order 2; type: functional; details: P388, ip, route intraperitoneal
Mus musculus [5] = test: The percent increase in life span on P388 cells which were inoculated intraperitoneally in CD2F1 mice at 50 mg/kg dose placed at ranking order 3; type: functional; details: P388, ip, route intraperitoneal
Mus musculus [6] = test: The percent increase in life span on P388 cells which were inoculated intraperitoneally in CD2F1 mice at 5 mg/kg dose placed at ranking order 1; type: functional; details: P388, ip, route intraperitoneal
Mus musculus [7] = test: The percent increase in life span on P388 cells which were inoculated intraperitoneally in CD2F1 mice at 400 mg/kg (tested in the same control) dose placed at ranking order 4; type: functional; details: P388, ip, route intraperitoneal
Mus musculus [8] = test: The percent increase in life span on P388 cells which were inoculated intraperitoneally in CD2F1 mice at 400 mg/kg dose placed at ranking order 1; type: functional; details: P388, ip, route intraperitoneal
Mus musculus [9] = test: In vivo antitumor activity against the B16 melanoma cell sarcoma expressed as percent increase in life span; IA means inactive; type: functional, organism-based
Mus musculus [10] = test: In vivo antitumor activity against the L1210 leukemia cell line expressed as percent increase in life span at 200 mg/kg dose; type: functional
Mus musculus [11] = test: In vivo antitumor activity against the M5076 reticulum cell sarcoma expressed as percent increase in life span; IA means inactive; type: functional, organism-based
Mus musculus [12] = test: The percent increase in life span on P388 cells which were inoculated intraperitoneally in CD2F1 mice at 400 mg/kg dose placed at ranking order 3; type: functional; details: P388, ip, route intraperitoneal
[13] = Ability to inhibit the dibutyryl-cAMP-induced change of an immature glioma cell to a mature, differentiated astrocyte by in vitro astrocytoma assay at 100 ug/mL dose (Experiment #1); value may range from 91 to up; type: functional, Mus musculus
[14] = Ability to inhibit the dibutyryl-cAMP-induced change of an immature glioma cell to a mature, differentiated astrocyte by in vitro astrocytoma assay at 100 ug/mL dose (Experiment #2)value may range from 71 to 90; type: functional, Mus musculus
[15] = Ability to inhibit the dibutyryl-cAMP-induced change of an immature glioma cell to a mature, differentiated astrocyte by in vitro astrocytoma assay at 10 ug/mL dose (Experiment #2); value may range from 31 to 50; type: functional, Mus musculus
[16] = Ability to inhibit the dibutyryl-cAMP-induced change of an immature glioma cell to a mature, differentiated astrocyte by in vitro astrocytoma assay at 10 ug/mL dose (Experiment #1); value may range from 31 to 50; type: functional, Mus musculus
[17] = Ability to inhibit the dibutyryl-cAMP-induced change of an immature glioma cell to a mature, differentiated astrocyte by in vitro astrocytoma assay at 1 ug/mL dose (Experiment #2) value may range from 16 to 30; type: functional, Mus musculus
[18] = Ability to inhibit the dibutyryl-cAMP-induced change of an immature glioma cell to a mature, differentiated astrocyte by in vitro astrocytoma assay at 1 ug/mL dose (Experiment #1); value may range from 16 to 30; type: functional, Mus musculus
Mus musculus [19] = test: In vivo antitumor activity against the L1210 leukemia cell line expressed as percent increase in life span; IA means inactive; type: functional, organism-based
Mus musculus [20] = test: In vivo antitumor activity against the B16 melanoma cell line expressed as percent increase in life span; IA means inactive; type: functional, organism-based
Mus musculus [21] = test: The percent increase in life span on P388 cells which were inoculated intraperitoneally in CD2F1 mice at 100 mg/kg dose placed at ranking order 1; type: functional; details: P388, ip, route intraperitoneal
Mus musculus [22] = test: The percent increase in life span on P388 cells which were inoculated intraperitoneally in CD2F1 mice at 100 mg/kg dose placed at ranking order 2; type: functional; details: P388, ip, route intraperitoneal

Structure (SMILES): CCOc1cc2c(cc1C(C)(C)c1ccc(OC)cc1)OCO2
- ILS at 240 mg/kg (Mus musculus [1]): 25%
- ILS at 480 mg/kg (Mus musculus [2]): 35%
- ILS (Mus musculus [3]): 35%

Structure (SMILES): O=c1[nH]cc(F)c(=O)[nH]1 [FLUOROURACIL]
- ILS (Mus musculus [3]): 73%

Structure (SMILES): CCOc1ccc(C(C)c2cc3c(cc2OCC)OCO3)cc1 (centres undefined)
- ILS at 200 mg/kg (Mus musculus [4]): 56%
- ILS at 50 mg/kg (Mus musculus [5]): 36%
- ILS at 5 mg/kg (Mus musculus [6]): 71%
- ILS (Mus musculus [3]): 71%

Structure (SMILES): COc1cc(C(C)c2cc3c(cc2OCCO)OCO3)cc(OC)c1OC (centres undefined)
- ILS at 200 mg/kg (Mus musculus [4]): 66%
- ILS at 400 mg/kg (Mus musculus [7]): 49%
- ILS at 400 mg/kg (Mus musculus [8]): 80%
- ILS (Mus musculus [9]): inactive
- ILS at 200 mg/kg (Mus musculus [10]; Mus musculus, L1210, dose 200 mg/kg): 43%
- ILS (Mus musculus [10]; dose 200 mg/kg): 33%
- ILS (Mus musculus [11]): inactive
- ILS at 400 mg/kg (Mus musculus [12]): 61%
- ILS (Mus musculus [3]): 80%

Structure (SMILES): CCOc1cc2c(cc1C(C)c1ccc(OC)cc1)OCO2 (centres undefined)
- Astrocyte reversal [13]: 91%
- Astrocyte reversal [14]: 90%
- Astrocyte reversal [15]: 50%
- Astrocyte reversal [16]: 50%
- Astrocyte reversal [17]: 30%
- Astrocyte reversal [18]: 30%
- ILS (Mus musculus [19]): inactive
- ILS (Mus musculus [11]): inactive
- ILS (Mus musculus [20]): inactive
- ILS (Mus musculus [3]): 25%
- ILS at 100 mg/kg (Mus musculus [21]): 25%
- ILS at 100 mg/kg (Mus musculus [22]): 23%

— ChEMBL document CHEMBL1123608, “In vivo antitumor activity of 6-benzyl-1,3-benzodioxole derivatives against the P388, L1210, B16, and M5076 murine models” (1987)
